Source: patent US8486986B2, “Microbiocides” (Syngenta Crop Protection LLC, priority 2007, dated 2013)

CC(Cc1c(-c2ccc(F)cc2)sc(Cl)c1Cl)NC(=O)c1cn(C)nc1C(F)(F)F (stereo not shown) [Compound 7.72, 1-methyl-3-trifluoromethyl-1H-pyrazole-4-carboxylic acid {2-[4,5-dichloro-2-(4-fluorophenyl)-thiophen 3-yl]1-methylethyl}amide]
melting point: 126 to 130 °C
